Columns and labels:
[1] = target: T1, TyrH (heme-dependent tyrosine hydroxylase) (Streptomyces sclerotialus, UniProt Z9QGI7APK5); assay: steady-state kinetics; assay type: biochemical; conditions: co-substrate H2O2
T1 sequence (Z9QGI7APK5 1-314): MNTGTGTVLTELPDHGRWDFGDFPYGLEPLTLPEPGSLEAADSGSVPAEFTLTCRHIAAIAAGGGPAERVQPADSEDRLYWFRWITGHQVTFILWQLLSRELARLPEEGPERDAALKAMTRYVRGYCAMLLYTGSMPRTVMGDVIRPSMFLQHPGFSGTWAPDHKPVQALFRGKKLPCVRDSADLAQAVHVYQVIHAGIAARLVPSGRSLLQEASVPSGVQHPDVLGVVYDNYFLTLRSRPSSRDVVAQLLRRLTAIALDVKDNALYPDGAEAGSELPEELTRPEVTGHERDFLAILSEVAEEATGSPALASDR

[2] = target: T1, TyrH (heme-dependent tyrosine hydroxylase); assay: UV-vis titration; assay type: binding; conditions: 100 mM potassium phosphate, 50 mM NaCl, pH 7.4; ferric enzyme

SMILES | KM [1] | Kd [2] [µM]
O=C(O)CCc1ccc(O)cc1 [HPPA, 3-(4-hydroxyphenyl)propionic acid] | The KM values for both tyrosine and HPPA were comparable (Figure S8) | –
N[C@@H](Cc1ccc(O)cc1)C(=O)O [L-Tyr, L-tyrosine] | The KM values for both tyrosine and HPPA were comparable (Figure S8) | –
O=Nc1ccccc1 [NB, nitrosobenzene] | – | 296 ± 8
